Data reported in patent publication US20230159486A1, “SUBSTITUTED THIOPHENECARBOXAMIDES AND ANALOGUES AS ANTIBACTERIALS AGENTS” (Bayer Aktiengesellschaft, priority 2018, published 2023).
Structures can show the parent of a compound that is named as a salt. Marks after values point to notes of the source that are not given here.

Key:
[1] = system: Xanthomonas campestris pv. campestris; assay: Xanthomonas campestris pv. campestris in vitro cell test (bacteria growth in liquid culture); format: cell-based; details: 20 ppm of tested compound, 24 h of incubation
Method: Culture medium: LB broth medium (Luria Broth Miller) Sigma
Inoculum: bacteria suspension
Compounds to be tested were solubilized in DMSO and the solution used to prepare the required range of concentrations. The final concentration of DMSO used in the assay was ≤1%.
Inoculum was prepared from a pre-culture of bacteria grown in liquid medium and diluted to the desired optical density (OD).
Compounds were evaluated for their ability to inhibit bacteria growth in liquid culture assay. The compounds were added in the desired concentrations to culture medium containing the bacteria suspension. After 24 h of incubation, the efficacy of compounds was determined by spectrometric measurement of bacteria growth. Inhibition was determined by comparing the absorbance values in wells containing the compounds with the absorbance in control wells without compounds.

[2] = system: Xanthomonas campestris pv. campestris; assay: In vivo preventive test on Xanthomonas campestris pv. campestris (black rot on cabbage); details: comparative Example C, same conditions as described in Example B; concentration not given
Method: The tested compounds were prepared by homogenization in a mixture of acetone/Dimethyl sulfoxide/Tween®, and then diluted with water to obtain the desired concentration.
The young plants of cabbage were treated by spraying the compound prepared as described above. Control plants were treated only with an aqueous solution of acetone/Dimethyl sulfoxide/Tween®.
After 72 hours, the plants were contaminated by spraying the leaves with an aqueous bacteria suspension of Xanthomonas campestris pv. campestris. The contaminated cabbage plants were incubated for 8 or 10 days at 27° C. at 95% relative humidity.
The test was evaluated 8 or 10 days after the inoculation. 0% means an efficacy which corresponds to that of the control plants while an efficacy of 100% means that no disease was observed.
Compounds CMP1 and CMP2 were tested in an in vivo preventive test on Xanthomonas campestris pv. campestris (black rot on cabbage) in the same conditions as described in Example B.
Compounds CMP1 and CMP2 were prepared in accordance with the teaching of U.S. Pat. No. 5,534,541.

[3] = Log P by HPLC on reversed phase columns (EEC directive 79/831 Annex V.A8); format: physicochemical
Method: In the above tables, measurement of Log P values was performed according to EEC directive 79/831 Annex V.A8 by HPLC (High Performance Liquid Chromatography) on reversed phase columns with the following methods: • ^[a]
If more than one Log P value is available within the same method, all the values are given and separated by “+”.
Calibration was done with straight-chain alkan2-ones (with 3 to 16 carbon atoms) with known Log P values (measurement of Log P values using retention times with linear interpolation between successive alkanones). Lambda-max-values were determined using UV-spectra from 200 nm to 400 nm and the peak values of the chromatographic signals.

[4] = system: salicylate responsive promoter sequence of the PR1 (pathogenesis-related protein 1) gene (AT2G14610); assay: Induction of defense gene expression in Arabidopsis thaliana (PR1 promoter-GFP reporter plants); format: in vivo; details: 300 ppm, 3rd day after spraying; mock treated leaves set as 1.00
Method: Arabidopsis thaliana reporter plants containing the coding sequence of a green fluorescent protein (GFP) linked to the salicylate responsive promoter sequence of the PR1 (pathogenesis-related protein 1) gene (AT2G14610) were grown for five days and then sprayed with compounds. On the 3rd day after spraying, plant fluorescence was assessed with a MacroFluo instrument from Leica Microsystems (Wetzlar, Germany). Fluorescences were quantified with the Meta-Morph Microscopy Automation & Image Analysis Software (Molecular Devices, Sunnyvale, Calif., United States). Background fluorescence in mock treated leaves was set as 1.00.

[5] = reversed phase HPLC columns, method [a]: LC-UV, acidic range, 0.1% formic acid in water and acetonitrile
[6] = reversed phase HPLC columns, value of the preparation example, method not marked

LogP [3] | Compound | direct activity (inhibition of bacteria growth) [1] | further results
3.68^[a] | C=CC1CC1(NC(=O)c1sc(Cl)c(Cl)c1Cl)C(=O)OC (mixture of isomers) [II.36] | no direct activity | Efficacy (%) [2]: >90%
5.22^[a] | CCOC(=O)C(CC(C)C)NC(=O)c1sc(Cl)c(Cl)c1Cl (racemic) [II.04] | no direct activity | 
3.62^[a] | CC(C)CC(NC(=O)c1sc(Cl)c(Cl)c1Cl)C(=O)O (racemic) [II.31] |  | 
2.83^[a] | O=C(NC(C(=O)O)C1CC1)c1sc(Cl)c(Cl)c1Cl (racemic) [II.33] |  | 
3.60^[a] | O=C(CNC(=O)c1sc(Cl)c(Cl)c1Cl)OCC(F)(F)F [II.07] | no direct activity | 
3.87^[a] | O=C(CNC(=O)c1sc(Cl)c(Cl)c1Cl)Oc1ccccc1 [II.08] | no direct activity | 
3.67^[a] | CC(C)OC(=O)CNC(=O)c1sc(Cl)c(Cl)c1Cl [II.09] | no direct activity | 
3.70^[a] | CCCOC(=O)CNC(=O)c1sc(Cl)c(Cl)c1Cl [II.10] | no direct activity | 
4.18^[a] | CCCCOC(=O)CNC(=O)c1sc(Cl)c(Cl)c1Cl [II.11] | no direct activity | 
3.33^[a] | O=C(CNC(=O)c1sc(Cl)c(Cl)c1Cl)OC1CC1 [II.12] | no direct activity | 
4.82^[a] | CC[C@H](C)[C@H](NC(=O)c1sc(Cl)c(Cl)c1Cl)C(=O)OC [II.14] | no direct activity | Efficacy (%) [2]: >90%
3.87^[a] | O=C(CNC(=O)c1sc(Cl)c(Cl)c1Cl)OC1CCC1 [II.16] | no direct activity | 
4.69^[a] | CC/C=C\CCOC(=O)CNC(=O)c1sc(Cl)c(Cl)c1Cl [II.17] | no direct activity | 
3.81^[a] | O=C(CNC(=O)c1sc(Cl)c(Cl)c1Cl)OCC1CC1 [II.18] | no direct activity | 
4.13^[a] | CC(C)COC(=O)CNC(=O)c1sc(Cl)c(Cl)c1Cl [II.19] | no direct activity | 
3.13^[a] | C#CCOC(=O)CNC(=O)c1sc(Cl)c(Cl)c1Cl [II.20] | no direct activity | 
3.64^[a] | C=CCOC(=O)CNC(=O)c1sc(Cl)c(Cl)c1Cl [II.22] | no direct activity | 
4.81^[a] | C[Si](C)(C)COC(=O)CNC(=O)c1sc(Cl)c(Cl)c1Cl [II.23] | no direct activity | 
4.27^[b] | CC(C)(C)OC(=O)CNC(=O)c1sc(Cl)c(Cl)c1Cl [II.24] | no direct activity | 
5.20^[a] | CCOC(=O)[C@@H](CC(C)C)NC(=O)c1sc(Cl)c(Cl)c1Cl [II.27] |  | 
5.16^[a] | CCOC(=O)[C@H](CC(C)C)NC(=O)c1sc(Cl)c(Cl)c1Cl [II.28] |  | 
3.69^[a] | CC[C@H](C)[C@H](NC(=O)c1sc(Cl)c(Cl)c1Cl)C(=O)O [II.30] |  | 
3.21^[a] | CCOC(=O)CN(C)C(=O)c1sc(Cl)c(Cl)c1Cl [II.35] | no direct activity | 

The remaining lines, values behind:

Compound | LogP [3] | direct activity (inhibition of bacteria growth) [1] | further results
COC(=O)C(NC(=O)c1sc(Cl)c(Cl)c1Cl)C1CC1 (racemic) [II.06] | 3.81^[a] | no direct activity | Efficacy (%) [2]: >90%
CCOC(=O)C(Cc1ccc(O)cc1)NC(=O)c1sc(Cl)c(Cl)c1Cl (racemic) [II.15] | 3.63^[a] | no direct activity | 
CCOC(=O)C(Cc1ccccc1)NC(=O)c1sc(Cl)c(Cl)c1Cl (racemic) [II.26] | 5.04^[a] |  | 
O=C(NC(Cc1ccccc1)C(=O)O)c1sc(Cl)c(Cl)c1Cl (racemic) [II.32] | 3.56^[a] |  | 
CCOC(=O)C(Cc1ccccc1)NC(=O)c1scc(Cl)c1Cl (racemic) [XVIa.02] | 3.99^[a] |  | 
COC(=O)C(NC(=O)c1cc(Cl)c(Cl)s1)C1CC1 (racemic) [XVIc.03] | 2.98^[a] |  | 
O=C(NC(C(=O)O)C1CC1)c1cc(Cl)c(Cl)s1 (racemic) [XVIc.05] | 2.33^[a] |  | 
COC(=O)CNC(=O)c1sc(Br)c(Br)c1Br [CMP1, reference compound] |  |  | Efficacy (%) [2]: 27%
COC(=O)C(NC(=O)c1sc(Cl)c(Cl)c1Cl)C(C)C (centres unmarked) [CMP2, reference compound] |  |  | Efficacy (%) [2]: 0%
COC(=O)CNC(=O)c1sc(Cl)c(Cl)c1Cl [II.01, methyl N-[(3,4,5-trichloro-2-thienyl)carbonyl]glycinate] |  | no direct activity | Efficacy (%) [2]: >90%; chromatographic logP [3, 5]: 2.83; chromatographic logP [3, 6]: 2.8
CCOC(=O)C1(NC(=O)c2sc(Cl)c(Cl)c2Cl)CC1 [II.02, ethyl 1-{[(3,4,5-trichloro-2-thienyl)carbonyl]amino}cyclopropanecarboxylate] |  | no direct activity | chromatographic logP [3, 5]: 3.41; chromatographic logP [3, 6]: 3.4
O=C(NC1(C(=O)O)CC1)c1sc(Cl)c(Cl)c1Cl [II.03] |  | no direct activity | 
O=C(O)CNC(=O)c1sc(Cl)c(Cl)c1Cl [II.05, N-[(3,4,5-trichloro-2-thienyl)carbonyl]glycine] |  |  | chromatographic logP [3, 5]: 2.16; chromatographic logP [3, 6]: 2.14
O=C(CNC(=O)c1sc(Cl)c(Cl)c1Cl)OCc1ccccc1 [II.13] |  | no direct activity | 
N#CCOC(=O)CNC(=O)c1sc(Cl)c(Cl)c1Cl [II.21] | 2.84^[a] | no direct activity | 
CCOC(=O)[C@H](Cc1ccccc1)NC(=O)c1sc(Cl)c(Cl)c1Cl [II.25] | 5.00^[a] |  | 
CCOC(=O)[C@@H](Cc1ccccc1)NC(=O)c1sc(Cl)c(Cl)c1Cl [II.37] | 5.00^[a] |  | 
O=C(O)c1ccccc1O [Salicylic acid] |  |  | relative fluorescence value [4]: 2.70
Nc1c(C(=O)O)sc(Cl)c1Cl [XIXc.01, 3-amino-4,5-dichlorothiophene-2-carboxylic acid hydrochloride (1:1)] |  |  | chromatographic logP ([3]; method [a]: LC-UV, acidic range, 0.1% formic acid in water and acetonitrile): 2.05
CCOC(=O)C1(NC(=O)c2sc(Cl)c(Cl)c2N)CC1 [XVIIc.01, ethyl 1-{[(3-amino-4,5-dichloro-2-thienyl)carbonyl]amino}cyclopropanecarboxylate] |  |  | chromatographic logP [3, 5]: 2.77; chromatographic logP [3, 6]: 2.77
CCOC(=O)CNC(=O)c1scc(Cl)c1Cl [XVIa.01] | 2.40^[a] |  | 
CCOC(=O)C1(NC(=O)c2scc(Cl)c2Cl)CC1 [XVIa.03] | 2.59^[a] |  | 
COC(=O)C1(NC(=O)c2cc(Cl)c(Cl)s2)CC1 [XVIc.01] | 2.49^[a] |  | 
